Measured values taken from publication PMC9600963, “Cation ATPase (ATP4) Orthologue Replacement in the Malaria Parasite Plasmodium knowlesi Reveals Species-Specific Responses to ATP4-Targeting Drugs” (mBio, 2022).

Legend:
Test in all cases: growth inhibition of orthologue replacement parasite line, SYBR green I (whole-cell read-out)
Type in all cases: cell-based
Conditions in all cases: intact P. knowlesi parasites in erythrocytes, 27 h (one life cycle); not a direct enzyme assay
[1] = biological target: T1, PocATP4 (PocATP4^OR line) (Plasmodium ovale, UniProt A0A1D3TM67)
T1 construct: gene ATP4; full-length recodonized coding region replacing pkatp4 in P. knowlesi A1-H.1; untagged; intact parasites
T1 sequence (A0A1D3TM67 1-1433): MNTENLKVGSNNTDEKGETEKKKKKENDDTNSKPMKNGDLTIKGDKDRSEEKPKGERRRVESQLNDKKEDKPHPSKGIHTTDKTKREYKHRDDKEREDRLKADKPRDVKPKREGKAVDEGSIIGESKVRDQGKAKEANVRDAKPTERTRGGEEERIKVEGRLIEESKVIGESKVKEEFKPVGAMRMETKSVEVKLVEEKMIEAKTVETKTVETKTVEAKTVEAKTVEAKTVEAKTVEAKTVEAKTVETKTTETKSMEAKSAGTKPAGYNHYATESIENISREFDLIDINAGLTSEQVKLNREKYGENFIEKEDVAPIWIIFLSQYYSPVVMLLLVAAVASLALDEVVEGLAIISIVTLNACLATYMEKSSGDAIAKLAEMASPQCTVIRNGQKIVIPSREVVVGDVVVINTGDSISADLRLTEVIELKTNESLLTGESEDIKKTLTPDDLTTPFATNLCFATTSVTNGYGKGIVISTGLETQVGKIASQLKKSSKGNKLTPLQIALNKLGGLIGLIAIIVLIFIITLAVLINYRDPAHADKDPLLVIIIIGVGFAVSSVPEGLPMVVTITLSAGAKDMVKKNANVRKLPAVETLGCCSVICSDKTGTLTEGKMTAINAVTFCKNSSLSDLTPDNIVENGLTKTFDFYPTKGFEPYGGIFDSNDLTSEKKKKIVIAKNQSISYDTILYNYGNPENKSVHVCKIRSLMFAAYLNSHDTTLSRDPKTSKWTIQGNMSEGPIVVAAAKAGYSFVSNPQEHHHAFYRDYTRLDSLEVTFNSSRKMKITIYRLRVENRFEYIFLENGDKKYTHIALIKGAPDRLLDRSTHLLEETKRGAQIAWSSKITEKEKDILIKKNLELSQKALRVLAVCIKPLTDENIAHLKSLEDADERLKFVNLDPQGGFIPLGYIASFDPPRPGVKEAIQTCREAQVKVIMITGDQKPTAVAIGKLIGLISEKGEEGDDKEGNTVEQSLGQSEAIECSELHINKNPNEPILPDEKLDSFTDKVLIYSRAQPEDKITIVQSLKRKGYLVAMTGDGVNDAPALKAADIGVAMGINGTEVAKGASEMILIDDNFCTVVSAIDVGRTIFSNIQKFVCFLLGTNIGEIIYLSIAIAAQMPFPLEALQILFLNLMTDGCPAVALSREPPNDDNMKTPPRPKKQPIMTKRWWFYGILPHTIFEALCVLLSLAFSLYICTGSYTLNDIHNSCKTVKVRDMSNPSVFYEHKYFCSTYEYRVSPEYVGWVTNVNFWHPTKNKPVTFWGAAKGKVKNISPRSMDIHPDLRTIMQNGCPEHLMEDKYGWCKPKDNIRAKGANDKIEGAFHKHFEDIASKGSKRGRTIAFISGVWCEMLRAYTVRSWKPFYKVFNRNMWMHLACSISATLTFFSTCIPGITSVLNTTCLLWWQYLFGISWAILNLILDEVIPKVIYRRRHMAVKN
Source text: growth inhibition of orthologue replacement parasite line, SYBR green I (whole-cell read-out) on PocATP4 (PocATP4^OR line)

[2] = biological target: T2, PvATP4 (PvATP4^OR line) (Plasmodium vivax, UniProt A5K0L8)
T2 construct: gene PVX_084625; full-length recodonized coding region replacing pkatp4 in P. knowlesi A1-H.1; untagged; intact parasites
Source text: growth inhibition of orthologue replacement parasite line, SYBR green I (whole-cell read-out) on PvATP4 (PvATP4^OR line)

[3] = biological target: T3, PmATP4 (PmATP4^OR line) (Plasmodium malariae, UniProt A0A1A8WBD6)
T3 construct: gene ATP4; full-length recodonized coding region replacing pkatp4 in P. knowlesi A1-H.1; untagged; intact parasites
T3 sequence (A0A1A8WBD6 1-1380): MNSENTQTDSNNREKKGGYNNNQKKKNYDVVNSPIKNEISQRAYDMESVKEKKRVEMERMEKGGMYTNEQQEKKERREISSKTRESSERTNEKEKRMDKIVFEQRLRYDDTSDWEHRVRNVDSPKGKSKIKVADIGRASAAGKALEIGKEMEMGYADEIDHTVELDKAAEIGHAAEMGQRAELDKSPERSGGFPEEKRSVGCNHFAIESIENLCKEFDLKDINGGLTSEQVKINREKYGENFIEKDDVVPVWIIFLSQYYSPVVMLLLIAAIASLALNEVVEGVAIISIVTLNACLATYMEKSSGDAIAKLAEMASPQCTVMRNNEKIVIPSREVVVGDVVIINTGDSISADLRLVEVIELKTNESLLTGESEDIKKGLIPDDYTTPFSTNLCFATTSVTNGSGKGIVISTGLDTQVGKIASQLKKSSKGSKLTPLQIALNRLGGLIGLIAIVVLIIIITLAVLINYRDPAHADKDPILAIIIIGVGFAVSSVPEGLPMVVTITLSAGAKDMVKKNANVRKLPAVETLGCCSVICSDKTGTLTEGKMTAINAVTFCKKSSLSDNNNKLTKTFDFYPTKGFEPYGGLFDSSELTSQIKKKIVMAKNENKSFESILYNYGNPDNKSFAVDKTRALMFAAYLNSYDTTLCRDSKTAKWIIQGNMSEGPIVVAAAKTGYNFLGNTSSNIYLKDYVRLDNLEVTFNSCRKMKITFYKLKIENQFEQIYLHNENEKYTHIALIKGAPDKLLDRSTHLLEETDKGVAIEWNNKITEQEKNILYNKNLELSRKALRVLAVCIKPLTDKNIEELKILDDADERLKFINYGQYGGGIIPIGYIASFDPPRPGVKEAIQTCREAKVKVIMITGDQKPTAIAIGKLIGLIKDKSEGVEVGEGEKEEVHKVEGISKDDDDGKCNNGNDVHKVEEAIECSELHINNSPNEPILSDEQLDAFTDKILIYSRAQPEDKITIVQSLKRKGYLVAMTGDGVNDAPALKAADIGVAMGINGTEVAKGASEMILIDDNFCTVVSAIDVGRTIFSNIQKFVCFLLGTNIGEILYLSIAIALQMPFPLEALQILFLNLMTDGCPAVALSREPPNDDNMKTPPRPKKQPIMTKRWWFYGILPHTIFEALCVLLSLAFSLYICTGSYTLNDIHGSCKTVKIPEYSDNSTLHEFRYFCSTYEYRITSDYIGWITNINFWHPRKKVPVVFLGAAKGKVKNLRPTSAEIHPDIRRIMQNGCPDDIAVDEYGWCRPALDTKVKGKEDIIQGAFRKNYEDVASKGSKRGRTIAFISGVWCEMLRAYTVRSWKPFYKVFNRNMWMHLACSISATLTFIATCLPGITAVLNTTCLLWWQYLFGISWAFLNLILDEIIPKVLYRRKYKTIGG
Source text: growth inhibition of orthologue replacement parasite line, SYBR green I (whole-cell read-out) on PmATP4 (PmATP4^OR line)

[4] = biological target: T4, PkATP4 (PkATP4^OR line) (Plasmodium knowlesi, UniProt A0A384LKC1)
T4 construct: gene PKNH_1312000; untagged; intact parasites
T4 sequence (A0A384LKC1 1-1293): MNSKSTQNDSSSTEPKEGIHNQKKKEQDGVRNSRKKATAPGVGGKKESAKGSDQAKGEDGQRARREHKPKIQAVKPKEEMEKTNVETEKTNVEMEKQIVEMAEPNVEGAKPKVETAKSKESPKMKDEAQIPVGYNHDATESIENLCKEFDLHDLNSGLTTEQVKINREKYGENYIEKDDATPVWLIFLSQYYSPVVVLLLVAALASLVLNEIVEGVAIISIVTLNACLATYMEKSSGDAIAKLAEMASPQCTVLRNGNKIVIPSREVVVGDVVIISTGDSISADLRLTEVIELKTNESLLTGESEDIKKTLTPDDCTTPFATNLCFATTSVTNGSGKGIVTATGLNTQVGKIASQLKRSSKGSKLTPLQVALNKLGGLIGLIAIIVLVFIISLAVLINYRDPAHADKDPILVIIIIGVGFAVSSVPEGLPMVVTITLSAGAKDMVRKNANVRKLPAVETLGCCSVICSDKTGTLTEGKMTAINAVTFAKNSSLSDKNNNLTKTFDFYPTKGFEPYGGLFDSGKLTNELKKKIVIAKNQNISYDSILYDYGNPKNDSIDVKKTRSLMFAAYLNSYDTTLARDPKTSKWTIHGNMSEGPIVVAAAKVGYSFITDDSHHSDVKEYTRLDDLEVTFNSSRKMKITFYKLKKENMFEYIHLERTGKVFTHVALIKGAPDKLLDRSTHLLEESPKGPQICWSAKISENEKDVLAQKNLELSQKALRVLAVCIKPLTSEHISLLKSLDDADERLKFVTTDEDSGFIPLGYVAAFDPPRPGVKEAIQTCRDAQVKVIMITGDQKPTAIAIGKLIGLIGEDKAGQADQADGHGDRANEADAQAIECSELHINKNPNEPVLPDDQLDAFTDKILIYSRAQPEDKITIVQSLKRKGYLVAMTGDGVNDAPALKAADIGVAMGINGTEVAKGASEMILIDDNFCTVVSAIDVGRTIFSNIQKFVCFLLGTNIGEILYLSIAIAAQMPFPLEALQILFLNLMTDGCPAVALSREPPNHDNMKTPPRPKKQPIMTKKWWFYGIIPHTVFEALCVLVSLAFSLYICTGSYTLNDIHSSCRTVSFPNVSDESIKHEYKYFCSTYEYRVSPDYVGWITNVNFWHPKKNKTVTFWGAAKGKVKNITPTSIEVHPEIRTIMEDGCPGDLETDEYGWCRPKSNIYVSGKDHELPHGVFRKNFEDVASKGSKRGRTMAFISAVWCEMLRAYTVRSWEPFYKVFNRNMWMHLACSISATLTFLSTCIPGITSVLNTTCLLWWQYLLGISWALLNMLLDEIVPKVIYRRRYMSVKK
Source text: growth inhibition of orthologue replacement parasite line, SYBR green I (whole-cell read-out) on PkATP4 (PkATP4^OR line)

[5] = biological target: T5, PfATP4 (PfATP4^OR line) (Plasmodium falciparum, UniProt A0A143ZZK9)
T5 construct: gene ATP4; full-length recodonized coding region replacing pkatp4 in P. knowlesi A1-H.1; untagged; intact parasites
T5 sequence (A0A143ZZK9 whole entry): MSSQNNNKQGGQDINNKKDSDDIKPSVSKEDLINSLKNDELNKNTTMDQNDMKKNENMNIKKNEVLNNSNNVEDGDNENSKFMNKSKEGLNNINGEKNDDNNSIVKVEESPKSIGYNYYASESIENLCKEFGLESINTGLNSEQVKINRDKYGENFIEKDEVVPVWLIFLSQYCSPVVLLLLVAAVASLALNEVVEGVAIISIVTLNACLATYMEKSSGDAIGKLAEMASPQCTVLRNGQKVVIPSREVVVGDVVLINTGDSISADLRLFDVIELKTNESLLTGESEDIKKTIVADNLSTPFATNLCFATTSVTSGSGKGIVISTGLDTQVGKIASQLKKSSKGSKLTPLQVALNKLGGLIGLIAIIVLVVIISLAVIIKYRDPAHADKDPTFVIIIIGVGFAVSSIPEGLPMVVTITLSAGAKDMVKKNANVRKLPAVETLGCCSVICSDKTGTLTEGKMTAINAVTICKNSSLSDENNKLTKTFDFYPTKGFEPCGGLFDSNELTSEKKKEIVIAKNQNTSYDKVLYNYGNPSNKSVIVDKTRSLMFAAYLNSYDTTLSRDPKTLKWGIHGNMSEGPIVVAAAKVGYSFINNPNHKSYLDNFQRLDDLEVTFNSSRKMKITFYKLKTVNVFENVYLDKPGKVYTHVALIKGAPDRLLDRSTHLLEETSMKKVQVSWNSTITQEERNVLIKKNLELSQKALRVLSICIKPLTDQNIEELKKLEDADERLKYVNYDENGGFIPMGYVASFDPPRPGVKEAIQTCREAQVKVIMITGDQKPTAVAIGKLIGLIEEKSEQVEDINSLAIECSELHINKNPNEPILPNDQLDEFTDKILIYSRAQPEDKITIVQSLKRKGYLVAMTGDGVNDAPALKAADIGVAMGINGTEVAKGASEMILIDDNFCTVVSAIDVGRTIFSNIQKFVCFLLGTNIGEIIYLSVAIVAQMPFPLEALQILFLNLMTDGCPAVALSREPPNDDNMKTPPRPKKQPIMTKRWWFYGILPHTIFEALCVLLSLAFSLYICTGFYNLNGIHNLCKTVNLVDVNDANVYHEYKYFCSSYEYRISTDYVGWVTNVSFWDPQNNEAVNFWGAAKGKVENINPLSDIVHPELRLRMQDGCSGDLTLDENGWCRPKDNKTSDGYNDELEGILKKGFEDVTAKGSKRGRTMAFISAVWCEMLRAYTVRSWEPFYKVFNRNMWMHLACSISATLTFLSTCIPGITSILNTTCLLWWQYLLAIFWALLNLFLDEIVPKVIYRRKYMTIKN
Source text: growth inhibition of orthologue replacement parasite line, SYBR green I (whole-cell read-out) on PfATP4 (PfATP4^OR line)

Which “EC50, nM (P value) / PA21A092” value [1] does the source give for PA21A092 here?
The value was 599 ± 70 nM.

What about the “EC50, nM (P value) / PA21A092” value [2] of the same substance?
The value was 94.8 ± 14.6 nM.

What about the “EC50, nM (P value) / PA21A092” value [3] of the same substance?
The value was 92.8 ± 14.7 nM.

What about the “EC50, nM (P value) / PA21A092” value [4] of the same substance?
Its value is 126 ± 5.5 nM.

And the “EC50, nM (P value) / PA21A092” value [5]?
Its value is 17.8 ± 2.9 nM.
